Data: the NIST ThermoML archive (doi:10.1021/je400781b)

Experiment: xn = mol fraction of the nth substance listed
Settings: 101 kPa, Liquid; for speed of sound: Frequency=2.75 MHz, Pulse-echo method; for mass density: Vibrating tube method

CCCC[n+]1ccn(C)c1.O=S(=O)([N-]S(=O)(=O)C(F)(F)F)C(F)(F)F + C1CCOC1
Settings | mass density, 293.15 K [kg/m3] | mass density, 298.15 K [kg/m3] | mass density, 303.15 K [kg/m3] | mass density, 308.15 K [kg/m3] | speed of sound, 293.15 K [m/s] | speed of sound, 298.15 K [m/s] | speed of sound, 303.15 K [m/s] | speed of sound, 308.15 K [m/s]
x1 = 0.0507 | 981.03 | 975.68 | 970.55 | 965.26 | 1276.2 | 1254.6 | 1233.2 | 1212
x1 = 0.124 | 1080.62 | 1075.39 | 1070.15 | 1064.96 | 1257.3 | 1238.5 | 1219.9 | 1201.5
x1 = 0.1963 | 1153.02 | 1147.88 | 1142.73 | 1137.6 | 1246.9 | 1230 | 1213.2 | 1196.6
x1 = 0.3526 | 1258.69 | 1253.67 | 1248.66 | 1243.66 | 1236.8 | 1222.4 | 1208 | 1193.8
x1 = 0.4962 | 1321.98 | 1317.04 | 1312.1 | 1307.18 | 1234.1 | 1220.9 | 1207.8 | 1194.9
x1 = 0.6378 | 1366.6 | 1361.72 | 1356.84 | 1351.97 | 1233.5 | 1221 | 1208.7 | 1196.5
x1 = 0.8047 | 1405.56 | 1400.72 | 1395.89 | 1391.07 | 1235.6 | 1223.8 | 1212.2 | 1200.7
x1 = 0.9143 | 1425.59 | 1420.79 | 1415.99 | 1411.2 | 1236.9 | 1225.4 | 1214.1 | 1203
x1 = 1 | 1439.23 | 1434.44 | 1429.65 | 1424.88 | 1237.9 | 1226.7 | 1215.6 | 1204.6

CCCC[n+]1ccn(C)c1.O=S(=O)([N-]S(=O)(=O)C(F)(F)F)C(F)(F)F + CC#N
Settings | mass density, 293.15 K [kg/m3] | mass density, 298.15 K [kg/m3] | mass density, 303.15 K [kg/m3] | mass density, 308.15 K [kg/m3] | mass density, 313.15 K [kg/m3] | speed of sound, 293.15 K [m/s] | speed of sound, 298.15 K [m/s] | speed of sound, 303.15 K [m/s] | speed of sound, 308.15 K [m/s] | speed of sound, 313.15 K [m/s]
x1 = 0.0506 | 936.84 | 931.39 | 925.93 | 920.45 | 914.95 | 1259.9 | 1241.7 | 1223.7 | 1205.7 | 1187.9
x1 = 0.1242 | 1078.45 | 1073.07 | 1067.67 | 1062.27 | 1056.87 | 1241 | 1224.8 | 1208.7 | 1192.7 | 1176.8
x1 = 0.2041 | 1175.48 | 1170.19 | 1164.9 | 1159.61 | 1154.32 | 1235 | 1220.1 | 1205.3 | 1190.6 | 1176
x1 = 0.341 | 1275.66 | 1270.52 | 1265.38 | 1260.25 | 1255.12 | 1234 | 1220.4 | 1206.9 | 1193.5 | 1180.3
x1 = 0.5016 | 1343.88 | 1338.86 | 1333.85 | 1328.85 | 1323.86 | 1235.1 | 1222.4 | 1209.9 | 1197.5 | 1185.2
x1 = 0.6525 | 1384.46 | 1379.53 | 1374.6 | 1369.69 | 1364.79 | 1236.2 | 1224.1 | 1212.1 | 1200.3 | 1188.6
x1 = 0.7861 | 1410.16 | 1405.28 | 1400.42 | 1395.58 | 1390.74 | 1237.1 | 1225.4 | 1213.8 | 1202.4 | 1191
x1 = 0.9575 | 1434.22 | 1429.41 | 1424.61 | 1419.83 | 1415.06 | 1237.9 | 1226.6 | 1215.4 | 1204.3 | 1193.4
x1 = 1 | 1439.23 | 1434.44 | 1429.65 | 1424.88 | 1420.12 | 1237.9 | 1226.7 | 1215.6 | 1204.6 | 1193.7
